Measurements taken from PubChem BioAssay AID2823 (Broad Institute, 2010).
The source made the active and inactive calls. How the calls were made is not given here.

Biological target: RanGTP-importin-beta complex (human Ran / KPNB1)
Assay: Ran–importin-beta interaction inhibitors, confirmation, biochemical, FRET, CFP/YFP, cell-free homogeneous (AID 2823)
Details: CFP-Ran/YFP-importin-beta FRET ratio

SMILES	IC50
COC(=O)Cc1c(C)c2cc(Cl)c(OC(=O)c3ccco3)cc2oc1=O	14.2 µM
COc1ccc(OC(=O)C2CC(=O)N(c3ccc(C)cc3)C2)cc1 (configuration not stated)	> 50 µM (inactive)
COCCN1C=C(C(=O)OC)C(c2cc(Br)c(OC)c(OC)c2)C(C(=O)OC)=C1	21.4 µM
CC1(C)CC(=O)NC=C(c2ccccc2)C1	> 50 µM (inactive)
C=CCn1c(SCCOc2ccc(OC)cc2)nnc1C(CO)NC(=O)c1ccc(OC)cc1 (configuration not stated)	> 50 µM (inactive)
CC(C)CCN(CCC(C)C)CC(O)Cn1c2ccccc2c(=O)c2ccccc21 (configuration not stated)	6.71 µM
Cc1ccc(-c2c(C(=O)N/N=C/c3ccc4c(c3)OCO4)nnn2-c2nonc2N)cc1	> 50 µM (inactive)
COCCn1c(N)c(C(=O)OCc2ccccc2)c2nc3ccccc3nc21	46.2 µM
CCCC(=O)NNc1c2ccccc2nc2ccccc12	> 50 µM (inactive)
COc1ccc(NC(=O)/C(C#N)=C\c2ccc(N3CCOCC3)o2)cc1	> 50 µM (inactive)
N=c1oc2ccccc2cc1-c1nc(-c2ccc(Cl)cc2)cs1	34.2 µM
OCC1(Cc2cccc(Cl)c2)CCCN(Cc2ccc3cc(F)ccc3n2)C1 (configuration not stated)	> 50 µM (inactive)
Cc1ccc(/C=C2/C(=O)c3ccc(C(=O)O)cc3C2=O)o1	> 50 µM (inactive)
N#CC1=C(N)OC2=C(CCc3ccccc32)C1c1ccccc1 (configuration not stated)	> 50 µM (inactive)
O=C(CN1CCOCC1)NNc1c2ccccc2nc2ccccc12	> 50 µM (inactive)
O=C(Oc1c(CN2CCOCC2)cc(Cl)c2cccnc12)c1ccccc1	> 50 µM (inactive)
CN(CCOc1ccccc1)CC(=O)Nc1ccc(Cl)cc1[N+](=O)[O-]	> 50 µM (inactive)
COc1ccccc1C1CC(c2ccc(Cl)cc2)Nc2nc(N)nn21 (configuration not stated)	> 50 µM (inactive)
CC1CC(=O)N(CC(=O)Nc2cccc(Cl)c2)c2ccccc2S1(=O)=O (configuration not stated)	> 50 µM (inactive)
O=Cc1ccc(N2Cc3ccccc3C2)cc1	> 50 µM (inactive)
Nc1c(C(=O)NCc2ccccc2)c2nc3ccccc3nc2n1-c1ccc2c(c1)OCO2	15.2 µM
Cn1cnnc1SCC(=O)c1cc2ccccc2oc1=O	> 50 µM (inactive)
Fc1ccccc1N1CCN(c2nc3ccccc3n3nnnc23)CC1	37.8 µM
CC1C2(C)OC(=N)C(C#N)(C(C)O2)C1(C#N)C#N (configuration not stated)	44.2 µM
CNC(=S)Nc1ccc(C(N)=O)cc1	> 50 µM (inactive)
COc1c2ccccc2nc2ccccc12	8.46 µM

Second part, the compound after the results:

IC50	SMILES
19 µM	CC1CN(Cc2cc(=O)oc3cc(O)ccc23)CC(C)O1 (configuration not stated)
> 50 µM (inactive)	O=C(NC1CC1)c1ccc2c(Cl)c3c(nc2c1)CCCC3
> 50 µM (inactive)	CC(=O)Nc1ccc(S(=O)(=O)NCc2nc(-c3cccc(C)c3)no2)cc1
> 50 µM (inactive)	CCOC(=O)c1sc(N/N=C/c2cc(Br)c(O)c(OC)c2)nc1C
7.86 µM	CCN1C2=C(C(=O)CCC2)C(c2ccc(O)c(Br)c2)C2=C1CCCC2=O
> 50 µM (inactive)	O=C(Nc1cccc(F)c1)c1ccc(S(=O)(=O)NCC2CCCO2)cc1 (configuration not stated)
> 50 µM (inactive)	Cc1ccc2cc(C#N)c(NCCNC(=O)C3CCC3)nc2c1C
> 50 µM (inactive)	Cc1cccc(NS(=O)(=O)c2ccc(C(=O)N3CCCCCC3)cc2)c1C
> 50 µM (inactive)	Oc1cccc(/C=N/Nc2cc(N3CCCC3)nc(N3CCCC3)n2)c1
26.3 µM	Cc1cc(NC(=O)c2sc3ccccc3c2O)no1
7.28 µM	CCN(CC)c1nc(-c2ccccc2)cc(C(F)(F)F)c1C#N
> 50 µM (inactive)	CC(=O)c1ccc(-c2ccc(Cn3c(C)nc4cc(N)c(C)nc43)cc2)cc1
> 50 µM (inactive)	Cc1cccc(/C=N/c2sc3c(c2C#N)CCN(Cc2ccccc2)C3)c1O
2.69 µM	NNc1nc2sc3c(c2c(=O)n1C1CCCCC1)CCN(Cc1ccccc1)C3
> 50 µM (inactive)	COc1cccc(C(=O)/C=C/Nc2cc(C)ccc2O)c1
> 50 µM (inactive)	CCN(C(=O)c1ccc(Cl)cc1[N+](=O)[O-])c1ccccc1C
